Reference: patent US10314841B2, “Substituted pyrazoles as IRAK inhibitors” (Merck Patent GmbH, priority 2014, dated 2019)
Read-outs that look alike come from different tables or passages of the source.

Tests used:
[1] = biological target: T1, IRAK1 (His-TEV-IRAK1 (194-712)) (Homo sapiens, UniProt P51617); experiment: IRAK1 enzymatic assay; assay type: biochemical; conditions: human recombinant His-TEV-IRAK1, ATP 1 μM, 3 hours at 30° C., FlashPlate
T1 construct: His-TEV-IRAK1 (194-712); His (N); TEV cleavage site (N)
T1 sequence (P51617 194-712): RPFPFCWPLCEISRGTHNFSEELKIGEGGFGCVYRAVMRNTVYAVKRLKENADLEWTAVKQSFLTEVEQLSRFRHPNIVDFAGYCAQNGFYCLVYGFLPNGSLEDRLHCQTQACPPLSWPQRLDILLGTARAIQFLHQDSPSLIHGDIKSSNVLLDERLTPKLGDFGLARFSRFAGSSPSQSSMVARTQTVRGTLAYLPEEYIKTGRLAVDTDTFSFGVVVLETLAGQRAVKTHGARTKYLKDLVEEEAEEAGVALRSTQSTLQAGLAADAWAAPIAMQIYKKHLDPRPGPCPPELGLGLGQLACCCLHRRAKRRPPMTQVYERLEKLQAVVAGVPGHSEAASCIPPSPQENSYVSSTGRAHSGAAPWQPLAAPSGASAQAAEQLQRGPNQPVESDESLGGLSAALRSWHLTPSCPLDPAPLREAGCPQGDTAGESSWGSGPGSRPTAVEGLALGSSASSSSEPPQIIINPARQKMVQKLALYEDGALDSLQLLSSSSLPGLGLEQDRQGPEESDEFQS
Procedure: IRAK1 Enzymatic Assay IRAK1 is a human purified recombinant enzyme (His-TEV-IRAK1 (194-712)). In this assay, IRAK-1 hydrolyses ATP and autophosphorylates. Measurement of IRAK-1 inhibition was performed in streptavidin coated 384 well FlashPlate (PerkinElmer #SM[…]). His-TEV-IRAK-1 (15 ng/well), ATP (1 μ[…]]ATP 0.25 μCi/well) and compounds in DMSO (range of concentrations from 20 μM to 1 nM) or controls (2% DMSO) were incubated for 3 hours at 30° C. in assay buffer: Hepes pH7.0 50 mM, Fatty acid-free BSA 0.1%, Dithiothreitol DTT 2 mM, MgCl2 10 mM, EGTA 0.5 mM, Triton-X-100 0.01%. Kinase reaction was stopped by addition of EDTA. Supernatant was discarded, plates were washed three times with 150 mM NaCl and radioactivity was then measured in a Microbeta Trilux reader.

[2] = system: TLR7 induced IL-6 secretion in human PBMC's; experiment: TLR7 induced IL-6 in human PBMC's; assay type: cell-based; conditions: read-out: TLR7 induced IL-6 secretion in hPBMC's (IC50)
Procedure: TLR7 Induced IL-6 in Human PBMC's Human PBMC assay was used as one of the functional assays to monitor the activity of IRAK1 and IRAK4 small molecule inhibitors on TLR7 induced IL-6 secretion in human mononuclear cells (PBMC's). Human PBMCs were prepared from buffy coats (whole blood enriched with leukocytes and platelets) obtained from healthy volunteers used either fresh or frozen are plated in assay media (RPMI+2% P/S/L-glu+10% HI-FBS) and pre-treated with compounds in DMSO/media (range of concentrations from 25 uM to 0.4 nM) or controls (0.25% DMSO) for 30 minutes at 37° C. in assay media. Following pre-treatment with IRAK1 and IRAK4 inhibitors, PBMC's were stimulated with TLR7 specific ligand (2 uM) overnight (16-18 hrs) at 37° C. After incubation supernatant was transferred to 384 well PE AlphaPlate-384 (6005350) and IL-6 is quantified using Perkin Elmer IL-6 Alpha LISA kit (A[…]). Plates were read on an Envision® plate reader with Alpha Technology®.

IRAK4 (His-TEV-IRAK4) = biological target: T2, IRAK4 (His-TEV-IRAK4) (Homo sapiens, UniProt Q9NWZ3); experiment: IRAK4 enzymatic assay; assay type: biochemical; conditions: human recombinant His-TEV-IRAK4, ATP 2 μM, STK1-biotin peptide 300 nM, 3 hours at 30° C., FlashPlate
T2 construct: His (N); TEV cleavage site (N)
T2 sequence (Q9NWZ3 1-460): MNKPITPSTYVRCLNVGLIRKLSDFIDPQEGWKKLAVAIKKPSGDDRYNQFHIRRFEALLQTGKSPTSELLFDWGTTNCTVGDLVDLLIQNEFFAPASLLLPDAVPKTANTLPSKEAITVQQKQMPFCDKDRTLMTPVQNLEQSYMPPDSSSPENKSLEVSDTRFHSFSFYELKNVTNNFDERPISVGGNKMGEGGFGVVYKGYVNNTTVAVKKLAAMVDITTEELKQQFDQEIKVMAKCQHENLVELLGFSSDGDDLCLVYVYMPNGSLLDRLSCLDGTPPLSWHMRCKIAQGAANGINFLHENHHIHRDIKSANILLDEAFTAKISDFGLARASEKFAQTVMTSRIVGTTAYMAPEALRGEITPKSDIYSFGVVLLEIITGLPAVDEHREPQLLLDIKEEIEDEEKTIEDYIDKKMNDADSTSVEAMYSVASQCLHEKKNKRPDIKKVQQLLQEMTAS
Procedure: IRAK4 Enzymatic Assay IRAK4 is a human purified recombinant enzyme (His-TEV-[…] (194-712). IRAK4 hydrolyses ATP, autophosphorylates and phosphorylates a Serine/Threonine generic peptidic substrate (STK: 61 ST1BLC from CisBio International based in Bagnols/Cèze FR). Measurement of IRAK-4 inhibition was performed in streptavidin coated 384 well FlashPlate (PerkinElmer #SM[…]). His-TEV-IRAK4 (20 ng/well), ATP (2 μM, [^33P]ATP 0.25 μCi/well), STK1-biotin peptide (300 nM) and compounds in DMSO (range of concentrations from 20 μM to 1 nM) or controls (2% DMSO) were incubated for 3 hours at 30° C. in assay buffer: Hepes pH7.0 50 mM, Fatty acid-free BSA 0.1%, Dithiothreitol DTT 2 mM, MgCl2 10 mM, EGTA 0.5 mM, Tween-20 0.01%, MnCl2 5 mM. Kinase reaction was stopped by addition of EDTA. Supernatant was discarded, plates were washed three times with 150 mM NaCl and radioactivity was then measured in a Microbeta Trilux reader.

[3] = human PBMC, TLR7 specific ligand 2 uM overnight, IL-6 Alpha LISA

| IC50 [1] [nM] | IC50 (IRAK4 (His-TEV-IRAK4)) [nM] | SMILES | IC50 [2, 3] [nM] | IC50 ([2]; Homo sapiens, PBMC) [nM] |
| --- | --- | --- | --- | --- |
| 100 to 1000 | 100 to 1000 | Cn1cc(-c2cccc(-c3ncc(-c4cnn(C5CCNCC5CO)c4)cn3)c2)cn1 (mixture of isomers) [Compound 26, [4-(4-{2-[3-(1-Methyl-1H-pyrazol-4-yl)-phenyl]-pyrimidin-5-yl}-pyrazol-1-yl)-piperidin-3-yl]-methanol] | 1000 to 20000 |  |
| < 100 | < 100 | C=CS(=O)(=O)N[C@@H]1CCC[C@H](n2cc(-c3cnc(-c4cccc(-c5cnn(C)c5)c4)nc3)cn2)C1 (racemic) [Compound 33] | 100 to 1000 |  |
| 100 to 1000 | < 100 | Cn1cc(-c2cccc(-c3ncc(-c4cnn([C@H]5CCC[C@H](NCCO)C5)c4)cn3)c2)cn1 (relative stereo) [Compound 2, 2-[Trans-3-(4-{2-[3-(1-Methyl-1H-pyrazol-4-yl)-phenyl]-pyrimidin-5-yl}-pyrazol-1-yl)-cyclohexylamino]-ethanol] | 1000 to 20000 |  |
| 100 to 1000 | < 100 | Cn1cc(-c2cccc(-c3ncc(-c4cnn([C@H]5CCC[C@H](N6CCOCC6=O)C5)c4)cn3)c2)cn1 (relative stereo) [Compound 3, 4-[Trans-3-(4-{2-[3-(1-Methyl-1H-pyrazol-4-yl)-phenyl]-pyrimidin-5-yl}-pyrazol-1-yl)-cyclohexyl]-morpholin-3-one] | 100 to 1000 |  |
| 100 to 1000 | < 100 | Cn1cc(-c2cccc(-c3ncc(-c4cnn([C@H]5CCC[C@@H](N6CCOCC6)C5)c4)cn3)c2)cn1 (relative stereo) [Compound 4, 4-[Cis-3-(4-{2-[3-(1-Methyl-1H-pyrazol-4-yl)-phenyl]-pyrimidin-5-yl}-pyrazol-1-yl)-cyclohexyl]-morpholine] | 100 to 1000 |  |
| 100 to 1000 | < 100 | Cn1cc(-c2cccc(-c3ncc(-c4cnn([C@H]5CCC[C@H](S(C)(=N)=O)C5)c4)cn3)c2)cn1 (relative stereo) [Compound 35] | 1000 to 20000 |  |
| < 100 | < 100 | C=CC(=O)N[C@@H]1CCC[C@H](n2cc(-c3cnc(-c4cccc(-c5cnn(C)c5)c4)nc3)cn2)C1 (relative stereo) [Compound 36] | 100 to 1000 |  |
| < 100 | < 100 | C=CS(=O)(=O)N[C@H]1CCC[C@H](n2cc(-c3cnc(-c4cccc(-c5cnn(C)c5)c4)nc3)cn2)C1 (relative stereo) [Compound 37, Ethenesulfonic acid [Trans-3-(4-{2-[3-(1-methyl-1H-pyrazol-4-yl)-phenyl]-pyrimidin-5-yl}-pyrazol-1-yl)-cyclohexyl]-amide] | 100 to 1000 |  |
| 100 to 1000 | < 100 | Cn1cc(-c2cccc(-c3ncc(-c4cnn([C@@H]5CCC[C@@H](NS(C)(=O)=O)C5)c4)cn3)c2)cn1 (single isomer, unassigned) [Compound 27] | 100 to 1000 |  |
| 100 to 1000 | 100 to 1000 | Cn1cc(-c2cccc(-c3ncc(-c4cnn([C@H]5CCC[C@@H](NS(C)(=O)=O)C5)c4)cn3)c2)cn1 (single isomer, unassigned) [Compound 28] | 1000 to 20000 |  |
| < 100 | < 100 | Cn1cc(-c2cccc(-c3ncc(-c4cnn(C5CCCC(NC(=O)OC(C)(C)C)C5)c4)cn3)c2)cn1 (stereo not drawn) [Compound 9, [3-(4-{2-[3-(1-Methyl-1H-pyrazol-4-yl)-phenyl]-pyrimidin-5-yl}-pyrazol-1-yl)-cyclohexyl]-carbamic acid tert-butyl ester] | 1000 to 20000 |  |
| 100 to 1000 | < 100 | C=CC(=O)N1CCC(n2cc(-c3cnc(-c4cccc(-c5cnn(C)c5)c4)nc3)cn2)CC1 [Compound 10, 1-[4-(4-{2-[3-(1-Methyl-1H-pyrazol-4-yl)-phenyl]-pyrimidin-5-yl}-pyrazol-1-yl)-piperidin-1-yl]-propenone] | 100 to 1000 |  |
| 100 to 1000 | < 100 | Cn1cc(-c2cccc(-c3ncc(-c4cnn(C5CCCC(N6CCC(F)(F)CC6)C5)c4)cn3)c2)cn1 (stereo not drawn) [Compound 11, 5-{1-[3-(4,4-Difluoro-piperidin-1-yl)-cyclohexyl]-1H-pyrazol-4-yl}-2-[3-(1-methyl-1H-pyrazol-4-yl)-phenyl]-pyrimidine] | 100 to 1000 |  |
| < 100 | < 100 | Cn1cc(-c2cccc(-c3ncc(-c4cnn(C5CCC[C@@H](NC6CCOC6)C5)c4)cn3)c2)cn1 (stereo partly drawn) [Compound 12, [3-Cis-(4-{2-[3-(1-Methyl-1H-pyrazol-4-yl)-phenyl]-pyrimidin-5-yl}-pyrazol-1-yl)-cyclohexyl]-(tetrahydro-furan-3-yl)-amine] | 100 to 1000 |  |
| 100 to 1000 | < 100 | C=CC(=O)N1CCCC(n2cc(-c3cnc(-c4cccc(-c5cnn(C)c5)c4)nc3)cn2)C1 (stereo not drawn) [Compound 14, 1-[3-(4-{2-[3-(1-Methyl-1H-pyrazol-4-yl)-phenyl]-pyrimidin-5-yl}-pyrazol-1-yl)-piperidin-1-yl]-propenone] | 100 to 1000 |  |
| < 100 | < 100 | C=CC(=O)NC1CCCC(n2cc(-c3cnc(-c4cccc(-c5cnn(C)c5)c4)nc3)cn2)C1 (stereo not drawn) [Compound 15, N-[3-(4-{2-[3-(1-Methyl-1H-pyrazol-4-yl)-phenyl]-pyrimidin-5-yl}-pyrazol-1-yl)-cyclohexyl]-acrylamide] | < 100 |  |
| < 100 | < 100 | C=CS(=O)(=O)N1CCCC(n2cc(-c3cnc(-c4cccc(-c5cnn(C)c5)c4)nc3)cn2)C1 (stereo not drawn) [Compound 17, 5-[1-(1-Ethenesulfonyl-piperidin-3-yl)-1H-pyrazol-4-yl]-2-[3-(1-methyl-1H-pyrazol-4-yl)-phenyl]-pyrimidine] | < 100 |  |
| < 100 | < 100 | C=CS(=O)(=O)N1CCC(n2cc(-c3cnc(-c4cccc(-c5cnn(C)c5)c4)nc3)cn2)CC1 [Compound 18, 5-[1-(1-Ethenesulfonyl-piperidin-4-yl)-1H-pyrazol-4-yl]-2-[3-(1-methyl-1H-pyrazol-4-yl)-phenyl]-pyrimidine] | < 100 |  |
| 100 to 1000 | < 100 | Cn1cc(-c2cccc(-c3ncc(-c4cnn(C5CCC[C@@H](S(C)(=N)=O)C5)c4)cn3)c2)cn1 (stereo partly drawn) [Compound 34, imino(methyl)(Cis-3-(4-(2-(3-(1-methyl-1H-pyrazol-4-yl)phenyl)pyrimidin-5-yl)-1H-pyrazol-1-yl)cyclohexyl)-I6-sulfanone] | 1000 to 20000 |  |

| SMILES | IC50 [1] [nM] | IC50 (IRAK4 (His-TEV-IRAK4)) [nM] | IC50 [2, 3] [nM] | IC50 ([2]; Homo sapiens, PBMC) [nM] |
| --- | --- | --- | --- | --- |
| Cn1cc(-c2cccc(-c3ncc(-c4cnn(C5CCCC(C(=O)O)C5)c4)cn3)c2)cn1 (mixture of isomers) [Compound 41, Lithium 3-(4-{2-[3-(1-Methyl-1H-pyrazol-4-yl)-phenyl]-pyrimidin-5-yl}-pyrazol-1-yl)-cyclohexanecarboxylate] | 1000 to 20000 | 100 to 1000 |  | 1000 to 20000 |
